Type in all cases: cell-based
In assay [1] the test system is CHO cells transfected with the mock vector. Put plainly: Intracellular calcium ion concentration change in CHO cells transfected with the mock vector. The protocol: (§1) CHO cells were transfected with pEF1/V5-HisB plasmid vector carrying the monkey GPR103 gene or human GPR103 gene obtained in Example 1 and the same vector without the insert (mock), and Geneticin (Invitrogen Corp.) was added to the medium to a final concentration of 2 mg/ml for selection of expressing cells. Next, the monkey or human GPR103 gene-expressing cells were singly cloned by the limiting dilution method and supplied for the following test. The monkey QRFP43 and QRFP26 synthesized by the method described in Example 6 were also supplied for the test.
(§2) After 24 hours of culturing, the cells were seeded in a 96-well poly-D-lysine coated black culture plate (Becton Dickinson) at 2.5×10^4 cells/well and cultured for two nights. […] Different concentrations of monkey QRFP43 or QRFP26 dissolved in the assay buffer were also set in the FLIPR, and then a sample was added to the cells and the change in intracellular calcium ion concentration-dependent fluorescence produced by irradiation with exciting light was measured.
(§3) Defining the change in fluorescence as the difference between the fluorescence immediately before addition of monkey QRFP43 or QRFP26 and the maximum value after addition, a Prism Version 4.00 (GraphPad) was used to graph the change in fluorescence due to each concentration of peptide (protein), and the 50% effective concentration was determined.

A further assay deals with T1, human GPR103 (Homo sapiens, UniProt Q96P65).
T1 construct: expressed in transfected cells; host or cells: CHO cells, Geneticin-selected, single clone by limiting dilution
T1 sequence (Q96P65 1-431): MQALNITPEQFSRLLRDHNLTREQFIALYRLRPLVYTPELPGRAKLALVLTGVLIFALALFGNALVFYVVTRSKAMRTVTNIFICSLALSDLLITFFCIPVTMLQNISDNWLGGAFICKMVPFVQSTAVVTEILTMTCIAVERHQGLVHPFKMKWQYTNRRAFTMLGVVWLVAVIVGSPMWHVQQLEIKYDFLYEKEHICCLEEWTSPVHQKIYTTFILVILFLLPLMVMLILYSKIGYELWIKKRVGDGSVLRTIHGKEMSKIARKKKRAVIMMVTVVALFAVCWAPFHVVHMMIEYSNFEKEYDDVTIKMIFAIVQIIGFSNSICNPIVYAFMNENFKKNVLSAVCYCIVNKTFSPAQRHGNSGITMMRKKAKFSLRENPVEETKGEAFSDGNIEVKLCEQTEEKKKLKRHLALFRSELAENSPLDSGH
Put plainly: Intracellular calcium ion concentration increasing activity (FLIPR) in human GPR103 gene-expressing CHO cells. Conditions: Fluo4, read-out: 50% effective concentration, intracellular calcium ion concentration increasing activity. The protocol: as §1, §2, §3
(A change in cytosolic calcium serves as a functional read-out for many receptors and channels.)

Another assay relates to monkey GPR103. Put plainly: Intracellular calcium ion concentration increasing activity (FLIPR) in monkey GPR103 gene-expressing CHO cells. Conditions: Fluo4, read-out: 50% effective concentration, intracellular calcium ion concentration increasing activity. The protocol:
as §1, §2, §3

Square brackets hold non-standard residues; d marks the D form. pGlu = O=C1CC[C@@H](C(=O)O)N1

For “H-ASGPLGNLAEELNGYSRKKGGFSFRF-NH2 [monkey QRFP26]”, the “change in intracellular calcium ion concentration” value in assay [1] is “no change”. The EC50 was 1.7 nM on human GPR103 and 9.2 nM in the assay on monkey GPR103.

“[pGlu]DEGSEADDFLPAGGVKASGPLGNLAEELNGYSRKKGGFSFRF-NH2 [monkey QRFP43]”: the “change in intracellular calcium ion concentration” value in assay [1] is “no change”. Besides, the EC50 is 58 nM on human GPR103 and 69 nM in the assay on monkey GPR103.

(Values after US7696339B2, “Nucleic acid encoding monkey QRFP” (Banyu Pharmaceutical Co., Ltd., priority 2004, dated 2010).)
